# Results reported in PubChem BioAssay AID336 (DTP/NCI, 2004).
# Values joined by “and” are separate entries in the source; they are usually repeats but may differ in a detail not shown here. Equal values may be shown once. Inconclusive results and toxic doses are left out.
# System: BDF1 mice, P388/VCR leukemia ip, median survival T/C
# Assay: NCI In Vivo Anticancer Drug Screen. Data for tumor model P388 Leukemia resistant to Vincristine; NSC 67574 (intraperitoneal) in B6D2F1 (BDF1) mice
# Details: endpoint: median survival time, higher = longer survival
# Method: The antitumor activity of compounds was measured in mice bearing transplantable tumors. Survival or tumor size were measured and the results are expressed as the measurement made in the treated group (T) divided by the measurement made in the vehicle treated control group (C). The tumor model used in this assay is P388 Leukemia resistant to Vincristine; NSC 67574 (intraperitoneal) in B6D2F1 (BDF1) mice
# [1] = dose: 20.0 mg/kg/injection, schedule: Q01DX010 (ip), vehicle: saline
smiles,measurement,setting,value
COc1cccc2c1C(=O)c1c(O)c3c(c(O)c1C2=O)C[C@@](O)(C(C)=O)C[C@@H]3OC1CC(N)C(O)C(C)O1 (stereo not given in full),T/C,"dose: 3.6 mg/kg/injection, schedule: Q04DX003 (ip), vehicle: water",110 % of control
same,T/C,"dose: 6.0 mg/kg/injection, schedule: Q04DX003 (ip), vehicle: water",104 % of control
same,T/C,"dose: 8.0 mg/kg/injection, schedule: Q04DX003 (ip), vehicle: water",114 % of control
COc1cc2cc3c4cc(OC)c(OC)cc4cc[n+]3c(C)c2cc1OC (tested in a mixture with another compound),T/C,"dose: 46.7 mg/kg/injection, schedule: Q04DX003 (ip), vehicle: alkali diluted with saline",106 % of control
same,T/C,"dose: 77.8 mg/kg/injection, schedule: Q04DX003 (ip), vehicle: alkali diluted with saline",110 % of control
same,T/C,"dose: 130.0 mg/kg/injection, schedule: Q04DX003 (ip), vehicle: alkali diluted with saline",115 % of control
same,T/C,"dose: 216.0 mg/kg/injection, schedule: Q04DX003 (ip), vehicle: alkali diluted with saline",124 % of control
CC1CC(C)(O)CC(C(O)CC2CC(=O)NC(=O)C2)C1=O (stereo not given),T/C,"dose: 480.0 micrograms/kg/injection, schedule: Q01DX009 (ip), vehicle: saline",105 % of control
same,T/C,"dose: 800.0 micrograms/kg/injection, schedule: Q01DX009 (ip), vehicle: saline",92 % of control
COc1cc2c[n+](C)c3c4cc5c(cc4ccc3c2cc1OC)OCO5,T/C,"dose: 43.2 mg/kg/injection, schedule: Q04DX003 (ip), vehicle: Klucel (hydroxypropylcellulose) (HPC)",106 % of control
same,T/C,"dose: 72.0 mg/kg/injection, schedule: Q04DX003 (ip), vehicle: Klucel (hydroxypropylcellulose) (HPC)",108 % of control
same,T/C,"dose: 120.0 mg/kg/injection, schedule: Q04DX003 (ip), vehicle: Klucel (hydroxypropylcellulose) (HPC)",106 % of control
same,T/C,"dose: 200.0 mg/kg/injection, schedule: Q04DX003 (ip), vehicle: Klucel (hydroxypropylcellulose) (HPC)",109 % of control
CO[C@H]1Nc2c(ccc(C)c2O)C(=O)N2C=C(/C=C/C(N)=O)C[C@@H]12,T/C,"dose: 151.0 micrograms/kg/injection, schedule: Q04DX003 (ip), vehicle: saline + alcohol",113 % of control
same,T/C,"dose: 360.0 micrograms/kg/injection, schedule: Q04DX003 (ip), vehicle: saline + alcohol",122 % of control
CN=C(NC)c1ccc(NC(=O)c2ccc(C(=O)Nc3ccc(C(=NC)NC)cc3)c(Cl)c2)cc1,T/C,"dose: 18.0 mg/kg/injection, schedule: Q01DX010 (ip), vehicle: saline",117 % of control
same,T/C,"dose: 27.0 mg/kg/injection, schedule: Q01DX010 (ip), vehicle: saline",95 % of control
CC[C@]1(O)C[C@H]2CN(CCc3c([nH]c4ccccc34)[C@@](C(=O)OC)(c3cc4c(cc3OC)N(C=O)[C@H]3[C@@](O)(C(=O)OC)[C@H](OC(C)=O)[C@]5(CC)C=CCN6CC[C@]43[C@@H]65)C2)C1,T/C,"dose: 0.03 mg/kg/injection, schedule: Q01DX010 (ip), vehicle: saline",110 % of control
same,T/C,"dose: 0.06 mg/kg/injection, schedule: Q01DX010 (ip), vehicle: saline",113 % of control
same,T/C,"dose: 0.12 mg/kg/injection, schedule: Q01DX010 (ip), vehicle: saline",114 % of control
same,T/C,"dose: 0.36 mg/kg/injection, schedule: Q04DX003 (ip), vehicle: saline",106 % of control
same,T/C,"dose: 0.6 mg/kg/injection, schedule: Q04DX003 (ip), vehicle: saline",109 % of control
same,T/C,"dose: 1.0 mg/kg/injection, schedule: Q04DX003 (ip), vehicle: saline",113 % of control
same,T/C,"dose: 1.67 mg/kg/injection, schedule: Q04DX003 (ip), vehicle: saline",107 % of control
same,T/C,"dose: 250.0 micrograms/kg/injection, schedule: Q04DX003 (ip), vehicle: saline",111 % of control
same,T/C,"dose: 324.0 micrograms/kg/injection, schedule: Q04DX003 (ip), vehicle: saline",98 % of control and 103 % of control
same,T/C,"dose: 360.0 micrograms/kg/injection, schedule: Q04DX003 (ip), vehicle: saline",101 % of control and 104 % of control
same,T/C,"dose: 389.0 micrograms/kg/injection, schedule: Q04DX003 (ip), vehicle: saline",109 % of control
same,T/C,"dose: 432.0 micrograms/kg/injection, schedule: Q04DX003 (ip), vehicle: saline",106 % of control
same,T/C,"dose: 500.0 micrograms/kg/injection, schedule: Q04DX003 (ip), vehicle: saline",107 % of control
same,T/C,"dose: 540.0 micrograms/kg/injection, schedule: Q04DX003 (ip), vehicle: saline",99 % of control and 104 % of control
same,T/C,"dose: 600.0 micrograms/kg/injection, schedule: Q04DX003 (ip), vehicle: saline",99 % of control and 103 % of control
same,T/C,"dose: 648.0 micrograms/kg/injection, schedule: Q04DX003 (ip), vehicle: saline",118 % of control
same,T/C,"dose: 720.0 micrograms/kg/injection, schedule: Q04DX003 (ip), vehicle: saline",104 % of control
same,T/C,"dose: 900.0 micrograms/kg/injection, schedule: Q04DX003 (ip), vehicle: saline",104 % of control and 111 % of control
same,T/C,"dose: 1000.0 micrograms/kg/injection, schedule: Q04DX003 (ip), vehicle: saline",95 % of control and 104 % of control and 108 % of control
same,T/C,"dose: 1080.0 micrograms/kg/injection, schedule: Q04DX003 (ip), vehicle: saline",113 % of control
same,T/C,"dose: 1200.0 micrograms/kg/injection, schedule: Q04DX003 (ip), vehicle: saline",107 % of control
same,T/C,"dose: 1500.0 micrograms/kg/injection, schedule: Q04DX003 (ip), vehicle: saline",99 % of control and 101 % of control
same,T/C,"dose: 1670.0 micrograms/kg/injection, schedule: Q04DX003 (ip), vehicle: saline",100 % of control
same,T/C,"dose: 1800.0 micrograms/kg/injection, schedule: Q04DX003 (ip), vehicle: saline",115 % of control
same,T/C,"dose: 2000.0 micrograms/kg/injection, schedule: Q04DX003 (ip), vehicle: saline",108 % of control and 111 % of control
CCOC(=O)NP(=O)(N1CC1(C)C)N1CC1(C)C (stereo not given),T/C,"dose: 31.3 mg/kg/injection, schedule: Q01DX010 (ip), vehicle: saline",117 % of control
same,T/C,"dose: 125.0 mg/kg/injection, schedule: Q01DX010 (ip), vehicle: saline",185 % of control
same,T/C,"dose: 250.0 mg/kg/injection, schedule: Q01DX010 (ip), vehicle: saline",246 % of control
COc1ccc(CC2C(=O)NC(C)C(=O)N(C)C3Cc4ccc(cc4)Oc4cc(ccc4O)CC(C(=O)NC(C)C(=O)NC(C)C(=O)N2C)N(C)C3=O)cc1 (stereo not given),T/C,"dose: 4.32 mg/kg/injection, schedule: Q04DX003 (ip), vehicle: other",108 % of control
same,T/C,"dose: 7.2 mg/kg/injection, schedule: Q04DX003 (ip), vehicle: other",103 % of control
CN=C(NC)c1ccc(NC(=O)Nc2ccc(NC(=O)Nc3ccc(C(=NC)NC)cc3)cc2)cc1,T/C,"dose: 13.3 mg/kg/injection, schedule: Q01DX010 (ip), vehicle: saline",150 % of control
same,T/C,[1],100 % of control
same,T/C,"dose: 30.0 mg/kg/injection, schedule: Q01DX010 (ip), vehicle: saline",504 % of control
O[C@H](CN1CC1)[C@@H](O)CN1CC1,T/C,"dose: 0.13 mg/kg/injection, schedule: Q01DX010 (ip), vehicle: saline",180 % of control and 200 % of control
same,T/C,"dose: 0.25 mg/kg/injection, schedule: Q01DX010 (ip), vehicle: saline",150 % of control and 241 % of control
Nc1nc(N)c2nc(CNc3ccc(C(=O)NC(CCC(=O)O)C(=O)O)cc3)cnc2n1 (stereo not given),T/C,"dose: 25.0 micrograms/kg/injection, schedule: Q01DX010 (ip), vehicle: other",118 % of control
same,T/C,"dose: 50.0 micrograms/kg/injection, schedule: Q01DX010 (ip), vehicle: other",114 % of control
same,T/C,"dose: 200.0 micrograms/kg/injection, schedule: Q01DX010 (ip), vehicle: other",166 % of control and 175 % of control
C[C@H]1C(=O)O[C@@H]2CCN3CC=C(COC(=O)[C@](C)(O)[C@@]1(C)O)[C@H]23,T/C,"dose: 1.56 mg/kg/injection, schedule: Q01DX010 (ip), vehicle: saline",108 % of control
same,T/C,"dose: 3.13 mg/kg/injection, schedule: Q01DX010 (ip), vehicle: saline",112 % of control
same,T/C,"dose: 6.25 mg/kg/injection, schedule: Q01DX010 (ip), vehicle: saline",91 % of control
same,T/C,"dose: 12.5 mg/kg/injection, schedule: Q01DX010 (ip), vehicle: saline",100 % of control
CCN(CC)CCNc1ccc(CO)c2sc3ccccc3c(=O)c12,T/C,"dose: 21.6 mg/kg/injection, schedule: Q01DX009 (ip), vehicle: water",109 % of control
same,T/C,"dose: 25.2 mg/kg/injection, schedule: Q01DX009 (ip), vehicle: water",120 % of control
same,T/C,"dose: 36.0 mg/kg/injection, schedule: Q01DX009 (ip), vehicle: water",112 % of control
same,T/C,"dose: 114.0 mg/kg/injection, schedule: Q01DX009 (ip), vehicle: water",90 % of control
CN(C)c1ccc(/C=C/c2ccnc3ccccc23)cc1,T/C,"dose: 5.0 mg/kg/injection, schedule: Q01DX010 (ip), vehicle: saline",92 % of control and 104 % of control
same,T/C,"dose: 10.0 mg/kg/injection, schedule: Q01DX010 (ip), vehicle: saline",88 % of control and 96 % of control
same,T/C,[1],104 % of control
same,T/C,"dose: 40.0 mg/kg/injection, schedule: Q01DX010 (ip), vehicle: saline",96 % of control and 100 % of control
O=C(Nc1ccc(C2=NCCN2)cc1)c1cccc(C(=O)Nc2ccc(C3=NCCN3)cc2)c1,T/C,"dose: 8.0 mg/kg/injection, schedule: Q01DX010 (ip), vehicle: saline",118 % of control
same,T/C,"dose: 16.0 mg/kg/injection, schedule: Q01DX010 (ip), vehicle: saline",111 % of control
same,T/C,"dose: 64.0 mg/kg/injection, schedule: Q01DX010 (ip), vehicle: saline",158 % of control
